The values that follow come from patent EP1397353B1, “2-(2,6-DISUBSTITUTED PHENYL)-4-ARYL-5-ALKYL-1,3-OXAZOLINE COMPOUNDS USEFUL AS INSECTICIDES AND ACARICIDES” (Dow AgroSciences LLC, priority 2001, dated 2003).

What all share (format): in vivo
Test [1] concerns beet armyworm (Spodoptera exigua). Put plainly: Insecticidal test for beet armyworm (treated lepidopteran diet). The note with it: 2nd instar larvae, 5 days, rating of % Control; for pest or weed control at 400 ppm: Spodoptera exigua, 120 h, read-out: BAW, activity at 400 ppm against beet armyworm. The method, then:
(§1) Insecticidal test for tobacco budworm (Heliothis virescens), beet armyworm (Spodoptera exigua), and cabbage looper (Trichoplusia ni).
(§2) To prepare test solution, the test compound was formulated at 400 ppm in 7.5 mL of 2 acetone: 1 tap water. 250 µL of the test solution was pipetted upon the surface of 8 mL of lepidopteran diet (modified Shorey) contained in each of five one-ounce plastic cups (one cup = 1 replication). […] After airdrying, the treated leaf discs were placed individually into one-ounce plastic cups. Each dried, treated cotton cotyledon disc was infested with a 2nd instar tobacco budworm larva, and each cabbage leaf disc was infested with a 2nd instar cabbage looper larva. Cups containing the treated substrates and larvae were capped and then held in a growth chamber at 25 °C, 50-55% RH, and 14 hr light: 10 hr dark for 5 days.

For test [2], the system named is cabbage looper (Trichoplusia ni). Put plainly: Insecticidal test for cabbage looper (leaf-dip, cabbage leaf discs). The note with it: dipped cabbage leaf discs, 2nd instar larvae, 5 days, rating of % Control; for pest or weed control at 400 ppm: Trichoplusia ni, foliar, 120 h, read-out: CL, activity at 400 ppm against cabbage looper. The method, then:
as §1, §2

The test system of test [3] is cotton aphid (Aphis gossypii). Put plainly: Insecticidal test for cotton aphid (spray on infested squash cotyledons). The note with it: 50 ppm spray, all life stages, 3 days, rating of % Control. The method, then: Insecticidal test for cotton aphid (Aphis gossypii)
To prepare spray solutions, 1 mg of each test compound was dissolved into 1 mL of a 90:10 acetone:ethanol solvent. This 1 mL of chemical solution was added to 19 mL of water containing 0.05% Tween 20 surfactant to produce a 50 ppm spray solution.
Squash cotyledons were infested with cotton aphid (all life stages)16-20 hours prior to application of spray solution. The solution was sprayed on both sides of each infested squash cotyledon (0.5 mL x 2 each side) with a sweeping action until runoff. The plants were allowed to air dry and held for 3 days in a controlled room at 26 °C and 40% RH after which time the test was graded. Grading was by actual count using a dissecting microscope and comparison of test counts to the untreated check.

In test [4] the test system is two-spotted spider mite (Tetranychus urticae). Put plainly: Insecticidal test for two-spotted spider mite, ovicide method. The note with it: for pest or weed control: Tetranychus urticae, read-out: SM, activity against two-spotted spider mite. The method, then:
Insecticidal test for two-spotted spider mite (Tetranychus urticae)
Ten adult female two-spotted spider mites were placed on eight 2.2 cm leaf discs of cotton leaf, allowed to oviposit over 24 hours, and thereafter removed. […] Discs were placed on an agar substrate and held at 24 °C and 90% RH for 6 days.

For test [5], the system named is tobacco budworm (Heliothis virescens). Put plainly: Insecticidal test for tobacco budworm (leaf-dip, cotton cotyledon discs). The note with it: dipped cotton cotyledon discs, 2nd instar larvae, 5 days, rating of % Control; for pest or weed control at 400 ppm: Heliothis virescens, 120 h, read-out: TBW, activity at 400 ppm against tobacco budworm. The method, then: as §1, §2

Test [6] relates to Sweetpotato Whitefly (Bemisia tabacia). Put plainly: Insecticidal test for sweetpotato whitefly (spray on cotton plants). The note with it: 200 ppm spray, large nymphs counted after 13 days, rating of % Control; for pest or weed control at 200 ppm: Bemisia, 312 h, read-out: WF, activity at 200 ppm against whitefly. The method, then:
Insecticidal test for Sweetpotato Whitefly (Bemisia tabacia)
Four mg of each test compound were dissolved by adding 4 mL of a 90:10 acetone:ethanol solvent mixture to the vial containing the sample compound. This solution was added to 16 mL of water containing 0.05% Tween 20 surfactant to produce 20 mL of a 200 ppm spray solution.
Five-week-old cotton plants reared in a greenhouse were stripped of all foliage except for the two uppermost true leaves that were greater than 5 cm in diameter. These plants were then placed into a laboratory colony of whiteflies for two days for oviposition by the colony females. All whiteflies were then removed from the test plants with pressurized air. The spray solution was then applied to the test plants with a hand-held syringe fitted with hollow cone nozzle. One mL spray solution was applied to each leaf top and bottom for a total of 4 mL per plant. Four replications of each test compound utilized a total of 16 mL spray solution. Plants were air dried and then placed in a holding chamber (28 °C and 60% RH) for 13 days. Compound efficacy was evaluated by counting, under an illuminated magnifying glass, the number of large nymphs (3rd-4th instar) per leaf
Percent control based on reduction of large nymphs of a test compound compared to solution-only (no test compound) sprayed plants is reported in Table 1-8.

Where [7] appears, read: foliar, 144 h, ovicide method, cotton leaf discs, 6 days, rating of % Control.
Where [8] appears, read: ovicide method, cotton leaf discs, 6 days, rating of % Control.

The structures appear in SMILES notation. A value given as a limit tells only on which side of the number the result lay.

For the molecule `C[C@@H]1OC(c2c(F)cccc2Cl)=N[C@@H]1c1ccc(-c2ccc(C(F)(F)F)cc2)cc1` (mixture of isomers) [Compound 4, (4R,5S)- and (4S,5R)-2-(2-chloro-6-fluorophenyl)-5-methyl-4-[4'-(trifluoromethyl)-1,1'-biphenyl-4-yl]-4,5-dihydro-1,3-oxazole], the pest or weed control at 400 ppm in test [1], in test [2] and in test [5] was 90 to 100% in each case. In test [3], the “CA, activity at 50 ppm against cotton aphid” value (shortened to “CA, activity at 50 ppm”) is “A (90-100)”. Further, in test [4] (setting [7]), the pest or weed control fell in the range of 90 to 100%.

Consider `CC(C)c1ccc(-c2ccc([C@@H]3N=C(c4c(F)cccc4F)O[C@@H]3C)cc2)cc1` (mixture of isomers) [Compound 7, (4S,5R)- and (4R,5S)-2-(2,6-difluorophenyl)-4-(4'-isopropyl-1,1'-biphenyl-4-yl)-5-methyl-4,5-dihydro-1,3-oxazole], for which the pest or weed control at 400 ppm in test [1], in test [2] and in test [5] was 90 to 100% in each case. Also, in test [6], the pest or weed control at 200 ppm is 90 to 100%. Also, in test [4] (setting [7]), the pest or weed control was 60 to 69%.

As to `C[C@H]1OC(c2c(F)cccc2F)=N[C@@H]1c1ccc(I)cc1` (mixture of isomers) [Compound 22, (4R, 5R)- and (4S,5S)-4-(4-iodophenyl)-2-(2,6-difluorophenyl)-5-methyl-4,5-dihydro-1,3-oxazole], the pest or weed control at 400 ppm in test [1] was 90 to 100%; in test [2], less than 50%. Also, the “CA, activity at 50 ppm” value in test [3] is listed as “A (90-100)”. Also, the pest or weed control in test [4] (setting [7]) lay within 90 to 100%.

Turning to `C[C@H]1OC(c2c(F)cccc2F)=N[C@@H]1c1ccc(Br)cc1` (mixture of isomers) [Compound 24, (4R,5R)- and (4S,5S)-4-(4-bromophenyl)-2-(2,6-difluorophenyl)-5-methyl-4,5-dihydro-1,3-oxazole], the pest or weed control at 400 ppm in test [2] and in test [5] was less than 50% throughout. Also, the “CA, activity at 50 ppm” value in test [3] is listed as “A (90-100)”. In addition, the pest or weed control in test [4] (setting [7]) lay in the range of 90 to 100%.

Consider `C[C@H]1OC(c2c(F)cccc2F)=N[C@@H]1c1ccc(-c2ccc(OC(F)(F)F)cc2)cc1` (mixture of isomers) [Compound 27, (4R,5R)- and (4S,5S)-2-(2,6-difluorophenyl)-4-(4'-trifluoromethoxy-1,1'-biphenyl-4-yl)-5-methyl-4,5-dihydro-1,3-oxazole], for which the values for the pest or weed control at 400 ppm in test [1], in test [2] and in test [5] were 90 to 100%, 90 to 100% and 80 to 89%, respectively. Further, the “CA, activity at 50 ppm” value in test [3] is on record as “E (50-59)”. Further, the pest or weed control in test [4] (setting [7]) lay within 90 to 100%.

For the molecule `C[C@@H]1OC(c2c(F)cccc2F)=N[C@H]1c1ccc(-c2ccc(C(F)(F)F)cc2F)cc1` (mixture of isomers) [Compound 32, (4S,5S)- and (4R,5R)-2-(2,6-difluorophenyl)-4-[2'-fluoro-4'-(trifluoromethyl)-1,1'-biphenyl-4-yl]-5-methyl-4,5-dihydro-1,3-oxazole], the pest or weed control at 400 ppm in test [1], in test [2] and in test [5] was 90 to 100% each time. For the same molecule, in test [6], the pest or weed control at 200 ppm was less than 50%. Also, the pest or weed control in test [4] (setting [7]) fell in the range of 70 to 79%.

For `Cc1cc(Br)ccc1[C@H]1N=C(c2c(F)cccc2F)O[C@H]1C` (mixture of isomers) [Compound 38, (4R,5S)- and (4S,5R)-4-(4-bromo-2-methylphenyl)-2-(2,6-difluorophenyl)-5-methyl-4,5-dihydro-1,3-oxazole], in test [6], the pest or weed control at 200 ppm was less than 50%. For the same molecule, the pest or weed control in test [4] (setting [7]) lay within 60 to 69%.

`Cc1cc(-c2ccc(C(F)(F)F)cc2)ccc1[C@H]1N=C(c2c(F)cccc2F)O[C@H]1C` (mixture of isomers) [Compound 39, (4R,5S)- and (4S,5R)-2-(2,6-difluorophenyl)-5-methyl-4-[3-methyl-4'-(trifluoromethyl)-1,1'-biphenyl-4-yl]-4,5-dihydro-1,3-oxazole]: the pest or weed control at 400 ppm in test [1], in test [2] and in test [5] was 90 to 100% each time. For the same molecule, the pest or weed control at 200 ppm in test [6] is less than 50%. Also, the pest or weed control in test [4] (setting [7]) is 80 to 89%.

On to `Cc1cc(-c2ccc(C(F)(F)F)cc2)ccc1[C@@H]1N=C(c2c(F)cccc2F)O[C@H]1C` (mixture of isomers) [Compound 43, (4S,5S) - and (4R,5R)-2-(2,6-difluorophenyl)-5-methyl-4-[3-methyl-4'-(trifluoromethyl)-1,1'-biphenyl-4-yl]-4,5-dihydro-1,3-oxazole], for which the pest or weed control at 400 ppm in test [1], in test [2] and in test [5] was 90 to 100% throughout. Also, the pest or weed control at 200 ppm in test [6] is less than 50%.

For the molecule `C[C@@H]1OC(c2c(F)cccc2F)=N[C@@H]1c1ccc(I)cc1` (racemic) [Compound 1, (4R,5S)- and (4S,5R)-4-(4-iodorphenyl)-2-(2,6-difluorophenyl)-5-methyl-4,5-dihydro-1,3-oxazole], the “CA, activity at 50 ppm” value in test [3] is “A (90-100)”. Moreover, the “SM, activity at 2.5 ppm against two-spotted spider mite” value (“SM, activity at 2.5 ppm” below) in test [4] (foliar, 144 h) is recorded as “A (90-100)”.

Consider `C[C@H]1OC(c2c(F)cccc2F)=N[C@H]1c1ccc(-c2ccc(OC(F)(F)F)cc2)cc1` (stereo in doubt) [Compound 49, (4S,5R)-2-(2,6-difluorophenyl)-5-methyl-4-[4'-(trifluoromethoxy)-1,1'-biphenyl-4-yl]-4,5-dihydro-1,3-oxazole], for which the “BAW, activity at 400 ppm against beet armyworm” value in test [1] is “A (90-100)”. In addition, the “WF, activity at 200 ppm against whitefly” value in test [6] is “B (80-89)”. Moreover, the “CL, activity at 400 ppm against cabbage looper” value in test [2] is on record as “A (90-100)”. Also, in test [4] (setting [8]), the “SM, activity at 2.5 ppm” value is “A (90-100)”.

For the molecule `C[C@@H]1OC(c2c(F)cccc2F)=N[C@@H]1c1ccc(-c2ccc(OC(F)(F)F)cc2)cc1` (stereo in doubt) [Compound 51, (4R,5S)-2-(2,6-difluorophenyl)-5-methyl-4-[4'-(trifluoromethoxy)-1,1'-biphenyl-4-yl]-4,5-dihydro-1,3-oxazole], the pest or weed control at 400 ppm in test [1] lay within 90 to 100%; in test [2], 90 to 100%; in test [5], 80 to 89%. In test [3], the “CA, activity at 50 ppm” value is reported as “F (less than 50)”. In addition, the pest or weed control in test [4] (setting [7]) fell in the range of 90 to 100%.

Regarding `C[C@@H]1OC(c2c(F)cccc2F)=N[C@H]1c1ccc(Br)cc1` [Compound 46, (4S,5S)-4-(4-bromophenyl)-2-(2,6-difluorophenyl)-5-methyl-4,5 dihydro-1,3-oxazole], in test [3], the “CA, activity at 50 ppm” value was “A (90-100)”. For the same molecule, in test [4] (setting [7]), the pest or weed control is 90 to 100%.

Take `C[C@H]1OC(c2c(F)cccc2F)=N[C@@H]1c1ccc(-c2ccc(OC(F)(F)F)cc2)cc1` [Compound 53, (4R,5R)-2-(2,6-difluorophenyl)-5-methyl-4-[4'-(trifluoromethoxy)-1,1'-biphenyl-4-yl]-4,5-dihydro-1,3-oxazole]: in test [1], the “BAW, activity at 400 ppm against beet armyworm” value is recorded as “A (90-100)”. The “CL, activity at 400 ppm against cabbage looper” value in test [2] was “A (90-100)”. The “CA, activity at 50 ppm” value in test [3] is reported as “F (less than 50)”. The “SM, activity at 2.5 ppm” value in test [4] (setting [8]) was “A (90-100)”. For the same molecule, the “TBW, activity at 400 ppm against tobacco budworm” value in test [5] is listed as “B (80-89)”.
